The source made the active and inactive calls. The rule behind the calls is not given here.
What was measured:
[1] = biological target: T1, Protein deacetylase HDAC6 (Mus musculus) (UniProt Q9Z2V5); experiment: Inhibition of HDAC6 in mouse HT-22 cells assessed as increase in acetylated histone H3 level at 20 to 500 nM after 24 hrs by Western blotting analysis; format: cell-based; settings: dose 20-500 nM
T1 sequence (whole entry): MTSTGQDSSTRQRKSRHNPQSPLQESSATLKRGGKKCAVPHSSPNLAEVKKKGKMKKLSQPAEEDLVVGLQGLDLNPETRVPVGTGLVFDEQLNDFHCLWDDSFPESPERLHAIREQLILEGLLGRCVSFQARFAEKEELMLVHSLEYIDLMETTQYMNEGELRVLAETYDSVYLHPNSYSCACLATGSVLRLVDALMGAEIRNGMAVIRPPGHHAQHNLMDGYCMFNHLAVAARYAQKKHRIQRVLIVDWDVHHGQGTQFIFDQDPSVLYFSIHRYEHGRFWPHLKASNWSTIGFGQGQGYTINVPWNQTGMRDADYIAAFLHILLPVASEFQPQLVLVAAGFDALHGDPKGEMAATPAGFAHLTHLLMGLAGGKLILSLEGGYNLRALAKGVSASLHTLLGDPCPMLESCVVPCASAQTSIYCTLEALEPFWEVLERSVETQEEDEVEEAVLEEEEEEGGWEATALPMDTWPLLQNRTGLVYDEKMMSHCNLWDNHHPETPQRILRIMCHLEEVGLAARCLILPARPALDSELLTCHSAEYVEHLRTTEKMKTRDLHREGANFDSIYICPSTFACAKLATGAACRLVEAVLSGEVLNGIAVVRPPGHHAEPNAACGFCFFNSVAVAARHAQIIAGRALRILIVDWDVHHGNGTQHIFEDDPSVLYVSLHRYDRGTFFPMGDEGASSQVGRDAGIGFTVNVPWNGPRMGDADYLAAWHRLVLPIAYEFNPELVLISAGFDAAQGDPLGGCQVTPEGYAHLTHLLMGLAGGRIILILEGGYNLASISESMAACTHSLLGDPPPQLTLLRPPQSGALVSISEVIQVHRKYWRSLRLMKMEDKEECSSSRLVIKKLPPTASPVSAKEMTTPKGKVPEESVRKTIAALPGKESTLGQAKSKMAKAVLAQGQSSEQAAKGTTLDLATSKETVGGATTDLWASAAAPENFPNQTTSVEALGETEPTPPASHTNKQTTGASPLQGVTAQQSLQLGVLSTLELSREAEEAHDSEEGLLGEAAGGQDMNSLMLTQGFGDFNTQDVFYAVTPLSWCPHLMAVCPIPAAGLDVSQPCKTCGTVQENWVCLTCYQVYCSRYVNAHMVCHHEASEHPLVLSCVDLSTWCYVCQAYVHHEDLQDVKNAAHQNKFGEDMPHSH

N9 = experiment: Immunomodulatory activity in mouse N9 microglial cells assessed as reduction in LPS-induced nitrite accumulation incubated for 24 hrs by Griess reagent based analysis; format: functional, cell-based; settings: dose 0.1-5 µM
[2] = biological target: T1, Protein deacetylase HDAC6 (Mus musculus); experiment: Inhibition of HDAC6 in mouse HT-22 cells assessed as increase in acetylated histone H4 level at 20 to 500 nM after 24 hrs by Western blotting analysis; format: cell-based; settings: dose 20-500 nM
[3] = biological target: T1, Protein deacetylase HDAC6 (Mus musculus); experiment: Inhibition of HDAC6 in mouse HT-22 cells assessed as increase in acetylated tubulin level at 20 to 500 nM after 24 hrs by Western blotting analysis; format: cell-based; settings: dose 20-500 nM
Mus musculus [4] = experiment: Cognitive enhancing effect in mouse model of Alzheimer's disease at 1 mg/kg; format: functional, organism-based
Mus musculus [5] = experiment: Anti-alzheimer activity against amyloid beta (25 to 35) induced working memory deficit in mouse assessed as increase in spontaneous alternation performance at 0.3 mg/kg, ip administered for 7 days and measured on day 8 by Y-maze test; format: functional, organism-based; settings: time 8.0 day
[6] = biological target: T1, Protein deacetylase HDAC6 (Mus musculus); experiment: Inhibition of HDAC6 in mouse HT-22 cells assessed as increase in acetylated tubulin level at […] after 24 hrs by Western blotting analysis; format: cell-based

inhibition [1] | inhibition [2] | inhibition [3] | inhibition [6] | SMILES | Activity (N9) | Activity (Mus musculus [4]) | Activity (Mus musculus [5])
inactive | inactive | Active |  | COc1ccc2[nH]cc(CCN(Cc3ccc(C(=O)NO)cc3)C(=O)/C=C/c3ccc(O)c(OC)c3)c2c1 | Dose-Dependent Effect | Active | Active
 |  |  | Active | COc1ccc2c(c1)c(CCNC(C)=O)cn2Cc1ccc(C(=O)NO)cc1 |  |  | 
